Source: patent US6790867B2, “Compositions and method for treating infection in cattle and swine” (Schering-Plough Animal Health Corporation, priority 2002, dated 2004)

Experiment: in vivo
Set-up: species or system cattle
Conditions: both sexes, bovine, 2.2 mg/kg
Method: In a second study, the pharmacokinetic profile of the second active component in Formulation 1A, flunixin, was examined. The pharmacokinetic profile of flunixin was evaluated following administration to cattle as the approved single entity flunixin meglumine product, […], and as the combination product Formulation 1A. This study was conducted in four phases using six cattle (3 males, 3 females). All animals received […] intravenously (IV) in the first phase. This was followed, after a washout period, by the administration of […] intramuscularly (IM) to 3 cows and […] subcutaneously (SQ) to 3 cows. In the next phase the animals were crossed over and received […] or SQ. In the final phase, all six cattle received the flunixin/florfenicol combination product (Formulation 1A). All animals received flunixin at a dose of 2.2 mg/kg, regardless of the formulation or route of administration. Blood samples for determination of flunixin concentration were collected at 0, 0.17, 0.5, 0.75, 1, 2, 3, 4, 6, 8, 12 and 24 hours after dosing. At the final phase of the study, the 6 cattle were given Formulation 1A at a dose of 10 mL per 75 kg SQ (equivalent to 40 mg/kg of florfenicol and 2.2 mg/kg of flunixin). The kinetics of flunixin when administered as Formulation 1A are different from the kinetics of flunixin when administered as […]. As such, the clinical dose response of Formulation 1A were ascertained in a subsequent study (described below).

- AUC(0-inf) (im): 10500 ng·h/mL
- Cmax (im): 3240 ng/mL
- Tmax (im): 30.6 min
- AUC(0-inf) (iv): 13600 ng·h/mL
- AUC(0-inf) (sc): 10900 ng·h/mL
- Cmax (sc): 2860 ng/mL
- Tmax (sc): 32.4 min
SMILES: Cc1c(Nc2ncccc2C(=O)O)cccc1C(F)(F)F [Flunixin, flunixin meglumine]
